Results on 16 compounds are retold here after patent US10221129B2, “Inhibitors of human immunodeficiency virus replication” (ViiV HEALTHCARE UK (NO.5) LIMITED, priority 2015, dated 2019).

What all share (assay type): cell-based
Data set [1] has as its system uninfected MT2 cells. In words: Compound cytotoxicity, XTT-based colorimetric assay. The note with it: day 4, XTT. The procedure, abridged:
(§1)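 Run under the antiviral-assay protocol but without virus. Viability was read on day 4 and CC50 values were derived from the readout.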
In general terms: Formazan colour is commonly taken as a measure of viable cells.

In data set [2] the test system is recombinant NL4-3 virus (nef section replaced with Renilla luciferase gene) in MT-2 cells. In words: HIV cell culture assay (antiviral activity, luciferase readout). The procedure, abridged: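 Serial compound dilutions tested in MT-2 cells infected for 4-5 days with 293T-derived NL4-3 virus carrying Renilla luciferase in place of part of nef. Antiviral activity quantified as luciferase activity, read with a live-cell substrate.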

A short description of data set [3]: Compound cytotoxicity, XTT-based colorimetric assay. The note with it: human, uninfected MT2 cells, day 4, XTT. The procedure, abridged:
as §1

[4] abbreviates: Renilla, NL43, MT-2 cells infected for 4-5 days with recombinant NL4-3 Renilla luciferase virus.
Where [5] appears, read: MT-2 cells infected for 4-5 days with recombinant NL4-3 Renilla luciferase virus.
Setting [6] is: MT-2 cells infected for 4-5 days with recombinant NL4-3 Renilla luciferase virus, read-out: EC50.

The term CC50 denotes the concentration giving 50% cytotoxicity. By pEC50 is commonly meant the EC50 on a negative log10 scale, so that one unit is a factor of ten.

pEC50: −log10 of the molar value. Like-named read-outs stand apart in the source and are kept apart here. A value given as a limit tells only on which side of the number the result lay.

`CC1CN(S(=O)(=O)NC(=O)N[C@@H](Cc2cc(F)cc(F)c2)C(=O)N(C)c2ccc3scnc3c2)c2ncccc21` (single isomer, unassigned) [VN-15] displayed a CC50 in data set [1] greater than 100 µM. For the same compound, the pEC50 in data set [2] (setting [4]) was 7.52.

Compound `CN(C(=O)[C@H](Cc1cc(F)cc(F)c1)NC(=O)NS(=O)(=O)N1CCCC1c1ccccc1)c1ccc2scnc2c1` (single isomer, unassigned) [VN-4] gave a CC50 in data set [1] of 57.5 µM. Also, in data set [2] (setting [5]), the pEC50 is 6.72.

`CN(C(=O)[C@H](Cc1cc(F)cc(F)c1)NC(=O)NS(=O)(=O)N1CCc2cncnc21)c1ccc2scnc2c1` [VN-19]: the CC50 in data set [1] stood at 70.5 µM. Besides, in data set [2] (setting [6]), the pEC50 is 6.17.

In data set [1], `CC1CCc2ccccc2N1S(=O)(=O)NC(=O)N[C@@H](Cc1cc(F)cc(F)c1)C(=O)N(C)c1ccc2scnc2c1` (single isomer, unassigned) [VN-11] returned a CC50 of 93.5 µM. In data set [2] (setting [5]), the pEC50 is 7.05.

For the compound `COc1ccc(N(C)C(=O)[C@H](Cc2ccccc2)NC(=O)NS(=O)(=O)NCc2n[nH]c3ccccc23)cc1` [JB-66], the CC50 in data set [1] is greater than 100 µM. In data set [2] (setting [6]), the pEC50 is 5.93.

For the compound `CN(C(=O)[C@H](Cc1cc(F)cc(F)c1)NC(=O)NS(=O)(=O)N1CCCC1c1ccccn1)c1ccc2scnc2c1` (single isomer, unassigned) [VN-2], in data set [1], the CC50 was greater than 100 µM. The pEC50 in data set [2] (setting [5]) was 6.21.

In the case of `CC1Cc2cccnc2N1S(=O)(=O)NC(=O)N[C@@H](Cc1cc(F)cc(F)c1)C(=O)N(C)c1ccc2scnc2c1` (single isomer, unassigned) [VN-7], the CC50 in data set [1] is greater than 1 µM. Besides, the negative logarithm of the EC50 (pEC50) in data set [2] (setting [5]) is 7.30.

The compound `CN(C)C(=O)C1Cc2cccnc2N1S(=O)(=O)NC(=O)N[C@@H](Cc1cc(F)cc(F)c1)C(=O)N(C)c1ccc2scnc2c1` (single isomer, unassigned) [BB-29] showed a cytotoxic concentration (CC50) in data set [1] greater than 100 µM. Besides, the pEC50 in data set [2] (setting [5]) is 5.61.

In data set [1], `CN(C(=O)[C@H](Cc1cc(F)cc(F)c1)NC(=O)NS(=O)(=O)n1ccc2cncnc21)c1ccc2scnc2c1` [VN-20] gave a CC50 greater than 100 µM. Moreover, the pEC50 in data set [2] (setting [6]) was 6.03.

Turning to `COc1ccc(N(C)C(=O)[C@H](Cc2ccccc2)NC(=O)NS(=O)(=O)n2nc(-c3ccccc3)c3ccccc32)cc1` [CA-63], in data set [3], the CC50 at 4 days came out at 73.7 µM. The pEC50 in data set [2] (setting [4]) was 4.52.

With `CN(C(=O)[C@H](Cc1cc(F)cc(F)c1)NC(=O)NS(=O)(=O)N1CCc2c(Cl)ccnc21)c1ccc2scnc2c1` [BB-8], the CC50 at 4 days in data set [3] turned out to be 82.4 µM. Also, the pEC50 in data set [2] (setting [4]) is 6.36.

`CC1CCc2ccccc2N1S(=O)(=O)NC(=O)N[C@@H](Cc1cc(F)cc(F)c1)C(=O)N(C)c1ccc2scnc2c1` (single isomer, unassigned) [VN-10] registered a CC50 in data set [1] greater than 33.3 µM. The pEC50 in data set [2] (setting [4]) was 7.00.

The compound `COc1ccc(N(C)C(=O)[C@H](Cc2ccccc2)NC(=O)NS(=O)(=O)Nc2ccccc2-c2ccccc2)cc1` [CA-31] registered a CC50 at 4 days in data set [3] greater than 33.3 µM. In addition, the pEC50 in data set [2] (setting [4]) was 5.93.

In turn, `COc1ccc(N(C)C(=O)[C@H](Cc2ccccc2)NC(=O)NS(=O)(=O)NCC(=O)N2CCN(c3ccccc3)CC2)cc1` [CA-58] displayed a CC50 at 4 days in data set [3] greater than 100 µM. Besides, in data set [2] (setting [4]), the negative logarithm of the EC50 (pEC50) was 5.13.

In data set [3], `COc1ccc(N(C)C(=O)[C@H](Cc2ccccc2)NC(=O)NS(=O)(=O)Nc2cccc(S(=O)(=O)N3CCOCC3)c2)cc1` [CA-47] gave a CC50 at 4 days greater than 100 µM. For the same compound, the negative-log EC50 (pEC50) in data set [2] (setting [4]) was 5.67.

`COc1ccc(N(C)C(=O)[C@H](Cc2ccccc2)NC(=O)NS(=O)(=O)Nc2ncccn2)cc1` [JB-29]: in data set [3], the CC50 at 4 days was greater than 100 µM. Moreover, the negative logarithm of the EC50 (pEC50) in data set [2] (setting [4]) is 5.80.
